Counter-ions that a name gives are not always drawn.
Molecular target: histidine-tagged recombinant human TrkA, cytoplasmic domain (Homo sapiens (Human), UniProt P04629)
Test: TrkA ELISA Assay
Assay type: biochemical
Settings: 2.5 nM TrkA, 500 μM ATP, 25 minutes; read-out: TrkA Elisa Enzyme IC50
Protocol: An enzyme-linked immunosorbant assay (ELISA) was used to assess TrkA kinase activity in the presence of inhibitors. Immulon 4HBX 384-well microtiter plates (Thermo part #8755) were coated with a 0.025 mg/mL solution of poly (Glu, Ala, Tyr; 6:3:1; Sigma P3899). Various concentrations of test compound, 2.5 nM TrkA (Invitrogen Corp., histidine-tagged recombinant human TrkA, cytoplasmic domain), and 500 μM ATP were incubated for 25 minutes at ambient temperature in the coated plates while shaking. The assay buffer consisted of 25 mM MOPS pH 7.5, 0.005% (v/v) Triton X-100 and 5 mM MgCl2. The reaction mixture was removed from the plate by washing with PBS containing 0.1% (v/v) Tween 20. The phosphorylated reaction product was detected using 0.2 μg/mL of a phosphotyrosine specific monoclonal antibody (clone PY20) conjugated to horseradish peroxidase in conjunction with the TMB Peroxidase Substrate System (KPL). After the addition of 1M phosphoric acid, the chromogenic substrate color intensity was quantitated via absorbance at 450 nm. IC50 values were calculated using either a 4 or 5-parameter logistic curve fit.

histidine-tagged recombinant human TrkA, cytoplasmic domain, sequence (P04629 440-796): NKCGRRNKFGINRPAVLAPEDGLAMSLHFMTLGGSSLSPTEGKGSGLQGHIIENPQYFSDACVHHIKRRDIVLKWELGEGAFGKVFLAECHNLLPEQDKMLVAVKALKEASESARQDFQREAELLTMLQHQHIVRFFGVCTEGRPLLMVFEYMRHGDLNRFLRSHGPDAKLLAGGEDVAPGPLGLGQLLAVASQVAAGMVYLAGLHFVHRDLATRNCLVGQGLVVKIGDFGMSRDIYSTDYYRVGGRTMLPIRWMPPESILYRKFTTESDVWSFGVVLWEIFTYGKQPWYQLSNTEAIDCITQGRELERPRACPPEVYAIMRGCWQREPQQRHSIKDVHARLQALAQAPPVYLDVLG

| SMILES | IC50 [nM] |
| --- | --- |
| Cn1ccc(C(=O)Nc2cnn3ccc(N4CCC[C@@H]4c4cccc(F)c4)nc23)cc1=O [Example 70, (R)—N-(5-(2-(3-fluorophenyl)pyrrolidin-1-yl)pyrazolo[1,5-a]pyrimidin-3-yl)-1-methyl-2-oxo-1,2-dihydropyridine-4-carboxamide] | 55.6 |
| CC1(C(=O)Nc2cnn3ccc(N4CCC[C@@H]4c4cc(F)ccc4Cl)nc23)CCNCC1 [Example 49, (R)—N-(5-(2-(2-chloro-5-fluorophenyl)pyrrolidin-1-yl)pyrazolo[1,5-a]pyrimidin-3-yl)-4-methylpiperidine-4-carboxamide hydrochloride] | 29.2 |
| Cn1ccc(C(=O)Nc2cnn3ccc(N4CCC[C@@H]4c4cccc(F)c4)nc23)n1 [Example 73, (R)—N-(5-(2-(3-fluorophenyl)pyrrolidin-1-yl)pyrazolo[1,5-a]pyrimidin-3-yl)-1-methyl-1H-pyrazole-3-carboxamide] | 8.5 |
| O=C(Nc1cnn2ccc(N3CCC[C@@H]3c3cc(F)ccc3Cl)nc12)N1CCC(O)CC1 [Example 42, (R)—N-(5-(2-(2-chloro-5-fluorophenyl)pyrrolidin-1-yl)pyrazolo[1,5-a]pyrimidin-3-yl)-4-hydroxypiperidine-1-carboxamide] | 28.3 |
| O=C(Nc1cnn2ccc(N3CCC[C@@H]3c3cccc(F)c3)nc12)c1ccncc1 [Example 77, (R)—N-(5-(2-(3-fluorophenyl)pyrrolidin-1-yl)pyrazolo[1,5-a]pyrimidin-3-yl)isonicotinamide] | 71.8 |
| CC(C)(C)C(=O)Nc1cnn2ccc(N3CCC[C@@H]3c3cc(F)ccc3F)nc12 [Example 45, (R)—N-(5-(2-(2,5-difluorophenyl)pyrrolidin-1-yl)pyrazolo[1,5-a]pyrimidin-3-yl)pivalamide] | 6.3 |
| CNC(C)(C)C(=O)Nc1cnn2ccc(N3CCC[C@@H]3c3cc(F)ccc3F)nc12 [Example 66, (R)—N-(5-(2-(2,5-difluorophenyl)pyrrolidin-1-yl)pyrazolo[1,5-a]pyrimidin-3-yl)-2-methyl-2-(methylamino)propanamide] | 52.5 |
| COc1ccc(NC(=O)Nc2cnn3ccc(N4CCC[C@@H]4c4cc(F)ccc4F)nc23)cc1 [Example 20, (R)-1-(5-(2-(2,5-difluorophenyl)pyrrolidin-1-yl)pyrazolo[1,5-a]pyrimidin-3-yl)-3-(4-methoxyphenyl)urea] | 4.8 |
| COc1ccc(F)cc1[C@H]1CCCN1c1ccn2ncc(NC(=O)N3CC[C@H](O)C3)c2n1 [Example 90, (S)—N-(5-((R)-2-(5-fluoro-2-methoxyphenyl)pyrrolidin-1-yl)pyrazolo[1,5-a]pyrimidin-3-yl)-3-hydroxypyrrolidine-1-carboxamide] | 11.3 |
| O=C(Nc1cnn2ccc(N3CCC[C@@H]3c3cc(F)ccc3Cl)nc12)N1CCC[C@H](O)C1 [Example 44, (S)—N-(5-((R)-2-(2-chloro-5-fluorophenyl)pyrrolidin-1-yl)pyrazolo[1,5-a]pyrimidin-3-yl)-3-hydroxypiperidine-1-carboxamide] | 13.4 |
| O=C(Nc1cnn2ccc(N3CCC[C@@H]3c3cc(F)cc(Cl)c3)nc12)N1CC[C@H](O)C1 [Example 35, (S)—N-(5-((R)-2-(3-chloro-5-fluorophenyl)pyrrolidin-1-yl)pyrazolo[1,5-a]pyrimidin-3-yl)-3-hydroxypyrrolidine-1-carboxamide] | 20.2 |
| O=C(Nc1cnn2ccc(N3CCC[C@@H]3c3cc(F)ccc3F)nc12)N1CC(O)C1 [Example 1, (R)—N-(5-(2-(2,5-difluorophenyl)pyrrolidin-1-yl)pyrazolo[1,5-a]pyrimidin-3-yl)-3-hydroxyazetidine-1-carboxamide] | 20.7 |
| O=C(Nc1cnn2ccc(N3CCC[C@@H]3c3cc(F)ccc3Cl)nc12)C1CNC1 [Example 47, (R)—N-(5-(2-(2-chloro-5-fluorophenyl)pyrrolidin-1-yl)pyrazolo[1,5-a]pyrimidin-3-yl)azetidine-3-carboxamide trifluoroacetate] | 190 |
| CC1(O)CN(C(=O)Nc2cnn3ccc(N4CCC[C@@H]4c4cc(F)ccc4F)nc23)C1 [Example 17, (R)—N-(5-(2-(2,5-difluorophenyl)pyrrolidin-1-yl)pyrazolo[1,5-a]pyrimidin-3-yl)-3-hydroxy-3-methylazetidine-1-carboxamide] | 19.7 |
| CN(C)C(=O)C(=O)Nc1cnn2ccc(N3CCC[C@@H]3c3cc(F)ccc3F)nc12 [Example 97, (R)—N^1-(5-(2-(2,5-difluorophenyl)pyrrolidin-1-yl)pyrazolo[1,5-a]pyrimidin-3-yl)-N^2,N^2-dimethyloxalamide] | 47.5 |
| CN(C)C(=O)Nc1cnn2ccc(N3CCC[C@@H]3c3cc(F)ccc3F)nc12 [Example 2, (R)-3-(5-(2-(2,5-difluorophenyl)pyrrolidin-1-yl)pyrazolo[1,5-a]pyrimidin-3-yl)-1,1-dimethylurea] | 15.8 |
| O=C(Nc1cnn2ccc(N3CCC[C@@H]3c3cc(F)ccc3C(F)(F)F)nc12)N1CC[C@@H](O)C1 [Example 85, (R)—N-(5-((R)-2-(5-fluoro-2-(trifluoromethyl)phenyl)pyrrolidin-1-yl)pyrazolo[1,5-a]pyrimidin-3-yl)-3-hydroxypyrrolidine-1-carboxamide] | 5.7 |
| O=C(Nc1cnn2ccc(N3CCC[C@@H]3c3cc(F)ccc3F)nc12)c1cc(Cl)ccn1 [Example 62, (R)-4-chloro-N-(5-(2-(2,5-difluorophenyl)pyrrolidin-1-yl)pyrazolo[1,5-a]pyrimidin-3-yl)picolinamide] | 4 |
| O=C(O)C1(C(=O)Nc2cnn3ccc(N4CCC[C@@H]4c4cc(F)ccc4F)nc23)CC1 [Example 34, (R)-1-(5-(2-(2,5-difluorophenyl)pyrrolidin-1-yl)pyrazolo[1,5-a]pyrimidin-3-ylcarbamoyl)cyclopropanecarboxylic acid] | 98.2 |
| C[C@H]1CN(C(=O)Nc2cnn3ccc(N4CCC[C@@H]4c4cc(F)ccc4F)nc23)CCN1 [Example 31, (S)—N-(5-((R)-2-(2,5-difluorophenyl)pyrrolidin-1-yl)pyrazolo[1,5-a]pyrimidin-3-yl)-3-methylpiperazine-1-carboxamide hydrochloride] | 88.3 |

Continued by falling IC50, values first:

| IC50 [nM] | SMILES |
| --- | --- |
| 171 | O=C(Nc1cnn2ccc(N3CCC[C@@H]3c3cc(F)cc(Cl)c3)nc12)N1CC(O)C1 [Example 11, (R)—N-(5-(2-(3-chloro-5-fluorophenyl)pyrrolidin-1-yl)pyrazolo[1,5-a]pyrimidin-3-yl)-3-hydroxyazetidine-1-carboxamide] |
| 116 | O=C(Nc1cnn2ccc(N3CCC[C@@H]3c3cccc(F)c3)nc12)N1CC(O)C1 [Example 32, (R)—N-(5-(2-(3-fluorophenyl)pyrrolidin-1-yl)pyrazolo[1,5-a]pyrimidin-3-yl)-3-hydroxyazetidine-1-carboxamide] |
| 85.5 | O=C(Nc1cnn2ccc(N3CCC[C@@H]3c3cc(F)ccc3C(F)F)nc12)N1CCC(O)CC1 [Example 38, (R)—N-(5-(2-(2-(difluoromethyl)-5-fluorophenyl)pyrrolidin-1-yl)pyrazolo[1,5-a]pyrimidin-3-yl)-4-hydroxypiperidine-1-carboxamide] |
| 35.4 | Cn1ccnc1C(=O)Nc1cnn2ccc(N3CCC[C@@H]3c3cccc(F)c3)nc12 [Example 83, (R)—N-(5-(2-(3-fluorophenyl)pyrrolidin-1-yl)pyrazolo[1,5-a]pyrimidin-3-yl)-1-methyl-1H-imidazole-2-carboxamide] |
| 27.5 | COC1CN(C(=O)Nc2cnn3ccc(N4CCC[C@@H]4c4cc(F)ccc4F)nc23)C1 [Example 16, (R)—N-(5-(2-(2,5-difluorophenyl)pyrrolidin-1-yl)pyrazolo[1,5-a]pyrimidin-3-yl)-3-methoxyazetidine-1-carboxamide] |
| 26.5 | O=C(Nc1cnn2ccc(N3CCC[C@@H]3c3cc(F)ccc3C(F)F)nc12)N1CC(O)C1 [Example 12, (R)—N-(5-(2-(2-(difluoromethyl)-5-fluorophenyl)pyrrolidin-1-yl)pyrazolo[1,5-a]pyrimidin-3-yl)-3-hydroxyazetidine-1-carboxamide] |
| 25.7 | O=C(Nc1cnn2ccc(N3CCC[C@@H]3c3cc(F)ccc3C(F)F)nc12)N1CCC[C@@H](O)C1 [Example 39, (R)—N-(5-((R)-2-(2-(difluoromethyl)-5-fluorophenyl)pyrrolidin-1-yl)pyrazolo[1,5-a]pyrimidin-3-yl)-3-hydroxypiperidine-1-carboxamide] |
| 16.5 | O=C(Nc1cnn2ccc(N3CCC[C@@H]3c3cc(F)ccc3F)nc12)C1(O)CC1 [Example 65, (R)—N-(5-(2-(2,5-difluorophenyl)pyrrolidin-1-yl)pyrazolo[1,5-a]pyrimidin-3-yl)-1-hydroxycyclopropanecarboxamide] |
| 5.7 | COc1ncccc1C(=O)Nc1cnn2ccc(N3CCC[C@@H]3c3cccc(F)c3)nc12 [Example 79, (R)—N-(5-(2-(3-fluorophenyl)pyrrolidin-1-yl)pyrazolo[1,5-a]pyrimidin-3-yl)-2-methoxynicotinamide] |
| 5 | O=C(Nc1ccccc1)Nc1cnn2ccc(N3CCC[C@@H]3c3cc(F)ccc3F)nc12 [Example 4, (R)-1-(5-(2-(2,5-difluorophenyl)pyrrolidin-1-yl)pyrazolo[1,5-a]pyrimidin-3-yl)-3-phenylurea] |
| 3 | O=C(Nc1cnn2ccc(N3CCC[C@@H]3c3cc(F)ccc3F)nc12)c1ncccn1 [Example 67, (R)—N-(5-(2-(2,5-difluorophenyl)pyrrolidin-1-yl)pyrazolo[1,5-a]pyrimidin-3-yl)pyrimidine-2-carboxamide] |

Source: patent US8865698B2, “Method of treatment using substituted pyrazolo[1,5-a]pyrimidine compounds” (Array BioPharma Inc., priority 2008, dated 2014)
